Assay results as given in patent publication US9585958B2, “Compositions and methods for reducing lactate levels” (The Regents of the University of California, priority 2013, dated 2017).

What was measured:
[1] = Permeation through DMPC liposomes (lactate assay kit); assay type: in vitro ADME; conditions: 112 mM
Description: It was investigated whether ABA can enhance lactate membrane permeability. Liposomes were generated from 1,2-dimyristoyl-sn-glycero-3-phosphocholine (DMPC), by evaporating 400 μL of 1 mg/mL of DMPC in chloroform in a 100 mL glass flask to completion; and the lipids were re-suspended in 400 μL PBS, thereby forming the liposomes. 50 μL of the liposomes and 50 μL of 112 mM ABA premixed with lactate were then added to the wells of the 96-well plate, and lactate assay kit was performed, according to the manufacturer's instructions. As controls, 50 μL of PBS and 50 μL of 112 mM ABA premixed with lactate were then added to the wells of the 96-well plate and lactate assay kit was performed, according to the manufacturer's instructions. Furthermore, for determining the permeability of lactate through the liposomes, 50 μL of the liposomes and 50 μL of 112 mM lactate were added to the wells of the 96-well plate, and lactate assay kit was performed, according to the manufacturer's instructions. As controls, 50 μL of PBS and 50 μL of 112 mM lactate were added to the wells of the 96-well plate and lactate assay kit was performed, according to the manufacturer's instructions.

[2] = Log D measurements (octanol/PBS, 13C NMR); assay type: physicochemical; conditions: octanol / 1×PBS pH 7.4, 16 h shaking
Description: 45 μmoles of ABA and 3-^13C-sodium L-lactate dissolved in 500 μL of 1×PBS at pH 7.4 were added to 500 μL of octanol and vigorously shaken for 16 h and then centrifuged for 2 min at 10,000×Gs to extract PBS. A 200 μL of D2O along with 188.7 μmoles (10 μL of 99.8%) of acetonitrile was added to the PBS and a carbon NMR was performed with 16 scans. The area under the curve for the NMR traces obtained was calculated using Mest-ReC software. Similarly, a carbon NMR was performed with 16 scans on a solution containing 45 μmoles of ABA, 45 μmoles of 3-^13C-sodium L-lactate dissolved in 500 μL of 1×PBS at pH 7.4 along with 200 μL of D2O and with 188.7 μmoles (10 μL of 99.8%) of acetonitrile. Area under the curve for the NMR traces obtained was calculated using Mest-ReC software. Acetonitrile peak at δ=1.47 was used as reference.
Furthermore, as controls, 3-^13C-sodium L-lactate dissolved in 500 μL of 1×PBS at pH 7.4 was added to 500 μL of octanol and vigorously shaken for 16 h and then centrifuged for 2 min at 10,000×Gs to extract PBS. A 200 μL of D2O along with 188.7 μmoles (10 μL of 99.8%) of acetonitrile was added to the PBS and a carbon NMR was performed with 16 scans. The area under the curve for the NMR traces obtained was calculated using Mest-ReC software. […] Area under the curve for the NMR traces obtained was calculated using Mest-ReC software.

For `C[C@H](O)C(=O)[O-].[Na+]` [lactate, sodium L-lactate], the permeation through liposomes [1] was “did not permeate through the liposomes” and the “Log D” value [2] was −2.
